Measured values as given in patent US11713302B2, “Sulfonamide benzamide derivative and preparation method and application thereof” (WEIFANG MEDICAL UNIVERSITY, priority 2021, dated 2023).
Where two headings read alike, the source gives them in different places.

Experiments:
HepAD38 cells = experiment: Cytotoxicity assay (CCK-8) in HepAD38 cells; assay type: cell-based; conditions: CCK-8, 10 days
Description: (§1) HBV stably transfected hepatocellular carcinoma cell line, HepAD38, was able to secrete HBV viral particles (containing HBsAg, HBeAg and DNA) when the cells were cultured. The amount of HBsAg and HBeAg secreted by the cells and the DNA produced varied under the intervention of anti-HBV target compounds, so the antiviral activity of the sample drug could be calculated by measuring the amount of HBsAg and HBeAg secreted by the cells into the culture supernatant and the HBV DNA produced, with reference to the amount in the unspiked control. Using entecavir as a positive control drug, the concentration of the drug at 50% inhibition of HBV DNA was measured by quantitative PCR at the value of IC50; the concentration of the sample drug causing 50% cell death was measured by CCK-8 at the value of CC50, and the “selectivity index” of the compound to be tested was calculated. SI=CC50/IC50. (1) Cytotoxicity assay
(§2) Each sample was prepared with HepAD38 cell culture medium at a diluted concentration (1 μM) for preliminary activity screening, and a blank control was set up and a positive control drug was added to the 96-well cell culture plate with 3 replicate wells per concentration, and the same concentration was changed every 2 days and a drug-free cell control group was set up for 10 days. Cell viability was measured by CCK-8 assay to determine the toxicity of the drug to HepAD38 cells. Five dilutions (10 μM, 2 μM, 0.4 μM, 0.08 μM and […]) were prepared in HepAD38 cell culture medium for compounds with low toxicity, and a blank control and entecavir and lead compound 5a were used as positive control drugs. Cell culture plates were added to 96-well plates with 3 replicate wells per concentration, and the same concentration was changed every 2 days and a drug-free cell control group was set up for 10 days. Cell viability was measured by CCK-8 assay to determine the toxicity of the drug on HepAD38 cells.

[1] = Cytotoxicity assay (CCK-8) in HepAD38 cells; assay type: cell-based; conditions: human
Description: as §1, §2

HBV DNA = HBV DNA activity inhibition assay (quantitative PCR) in HepAD38 cells; assay type: cell-based, hepatitis B virus (HBV)
Description: as §1
(2) HBV DNA Activity Inhibition Assay (Quantitative PCR Method)
HepAD38 cells were cultured in 96-well cell culture plate for 24 hours, then 10 μM, 2 μM, 0.4 μM, 0.08 μM and […] drug-containing medium was added and the cells were incubated for 10 days (changed every 2 days), the supernatant was collected and the supernatant HBV DNA content was measured by quantitative PCR.

[2] = Hepatitis B virus, 240 h, supernatant HBV DNA, HepAD38 cells, quantitative PCR, 10 days, read-out: EC50
[3] = Hepatitis B virus, 240 h, supernatant HBV DNA, HepAD38 cells, quantitative PCR, 10 days, read-out: IC90
[4] = Hepatitis B virus, HePAD38, 240 h

Compound `O=C(Nc1ccc(F)c(Cl)c1)c1cc(S(=O)(=O)NC2CCCC2)cc2c1OCCO2` [Compound 5b] has a CC50 (HepAD38 cells) greater than 10000 nM, a CC50 at 10 days ([1]; CCK-8) greater than 10000 nM and an EC50 (HBV DNA; [2]) of 2.52 nM. For the same compound, the IC90 (HBV DNA; [3]) was 293 nM and the “inhibition of HBV DNA replication activity (initial screening)” value (“inhibition” below) (HBV DNA; quantitative PCR) was “good HBV DNA replication inhibitory activity”.
`O=C(Nc1ccc(F)c(Cl)c1)c1cc(S(=O)(=O)NC2CCCCC2)cc2c1OCCO2` [Compound 5c] showed a CC50 (HepAD38 cells) greater than 10000 nM, a CC50 at 10 days ([1]; CCK-8) greater than 10000 nM and an EC50 (HBV DNA; [2]) of 14.9 nM. The IC90 (HBV DNA; [3]) was 430 nM and the “inhibition” value (HBV DNA; quantitative PCR) was “good HBV DNA replication inhibitory activity”.
`CC(C)NS(=O)(=O)c1cc2c(c(C(=O)Nc3ccc(F)c(Cl)c3)c1)OCCO2` [Compound 5k] showed a CC50 (HepAD38 cells) greater than 10000 nM, a CC50 at 10 days ([1]; CCK-8) greater than 10000 nM and an EC50 (HBV DNA; [2]) of 0.96 nM. For the same compound, the IC90 (HBV DNA; [3]) was 99 nM, the IC50 (HBV DNA; Hepatitis B virus, HePAD38, quantitative PCR, read-out: IC50 (anti-HBV DNA replication activity)) was 0.96 nM and the “inhibition” value (HBV DNA; quantitative PCR) was “good HBV DNA replication inhibitory activity”.
In the case of `C=C1[C@H](CO)[C@@H](O)C[C@@H]1n1cnc2c(=O)[nH]c(N)nc21` [ETV, entecavir, reference compound], the CC50 at 10 days ([1]; CCK-8, 10 days) is reported as greater than 10000 nM, the EC50 (HBV DNA; [4]) is reported as 0.121 nM and the IC90 (HBV DNA; [4]) is reported as 21 nM.
